Laboratory results reported in US5158950A, “1,3-dithiol-2-ylidene derivatives and process for the preparation thereof” (Yuhan Corporation, Ltd., priority 1987, dated 1992).

Columns and labels:
[1] = test system: serum ALT level after CCl4 treatment; assay: Determination of 50% inhibitory dose (ID50) against CCl4-induced serum ALT increase; assay type: in vivo; settings: Mus musculus; mice, oral, 6 h before CCl4; estimated from dose-response curve at 50, 25, 12.5, 6.25 mg/kg
Description: Principle The various doses of test compounds were administered to mice, followed by the treatment with CCl4 after 6 hours. 24 Hours after the CCl4 treatment, the serum ALT level of the animals were determined. The hepatoprotective effect of the test compounds and the doses were plotted to form dose-response curves. The ID50 doses of the test compounds were estimated from the dose-response curves.
Method; The experimental animals were divided into normal, CCl4 treated and test compound treated groups. Each group consisted of 8 mice with body weight of 20-25 grams. The test compounds were suspended in 0.2% CMC-Na solution and administered orally at a dose of 50 mg, 25 mg, 12.5 mg, or 6.25 mg/125 ml/kg body weight. Only the vehicle, 0.2% CMC-Na solution, was administered to the normal and to the CCl4 treated group instead of the test compound suspension. 6 Hours after the drug administration, the CCl4 solution in olive oil was administered orally to the CCl4 treated and the test compound treated groups at the dose of 50 ul/25 ml olive oil/kg body weight. The normal group was administered olive oil only at the same dose. 24 Hours after the CCl4 administration, blood samples were collected from the orbital sinus of the animals and the sera were obtained by centrifugation. The serum ALT activities were monitored and the hepatoprotective effect of the test compounds were calculated by the same method as described in experiment 1. The inhibitory percentages were plotted against the corresponding doses of the test compounds to make dose-response curves. The 50% inhibitory dose of test compound was estimated from the dose-response curve.

[2] = test system: serum ALT activity induced by CCl4; assay: Protective effect against acute hepatic damage induced by carbon tetrachloride (serum ALT); assay type: in vivo; settings: Mus musculus; mice, 50 mg/kg oral, 6 h before CCl4 (50 ul/kg oral); ALT 24 h after CCl4; read-out: Inhibitory (%): protective effect against increase of serum ALT activity induced by CCl4
Description: Principle; Carbon tetrachloride (CCl4) is a well-known hepatotoxic agent, thus widely used to produce experimental animal models for screening the potential drugs acting upon hepatic diseases. In this experiment test compounds were administered to mice prior to treatment with CCl4. 24 Hours after the CCl4 treatment, the animals were sacrificed and serum alanine aminotransferase (ALT) levels were determined. The hepatoprotective effect of a test compound was evaluated by the suppressive action against the increase of serum ALT induced by CCl4.
Method; The experimental animals were divided into normal, CCl4 treated and test compound treated groups. Each group consisted of 8 mice with body weight of 20-25 grams. The test compounds were suspended in 0.2% sodium carboxy methyl cellulose (CMC-Na) solution and administered orally at the dose of 50 mg/125 ml/kg body weight. Only the vehicle, 0.2% CMC-Na solution, was administered to the normal and to the CCl4 treated group instead of the test compound suspension. 6 Hours after the drug administration, the CCl4 solution in olive oil was administered orally to the CCl4 treated- and the test compound treated group at the dose of 50 ul/25 ml olive oil/kg body weight. The normal group was administered olive oil only at the same dose. 24 Hours after the CCl4 administration, blood samples were collected from the orbital sinus of the animals and the sera were obtained by centrifugation The serum ALT activities were monitored using an automatic blood analyzer (Gilford, SBA 300). The hepatoprotective effect of the test compounds was expressed by the suppressive percentage against the increase of serum ALT level induced by CCl4 calculated by the following formula; [formula]

[3] = Acute oral toxicity, median lethal dose (LD50); settings: mouse, in vivo, male ICR mice, deaths counted for 14 days
Description: Each test compound was suspended in a 0.2% CMC-Na solution in various concentrations to make test suspension. The test suspensions were administered orally to male ICR mice (10 in each group) at various doses. The number of dead mice was counted for 14 days and the value of mediam lethal dose (LD50, g/kg) was calculated by the Hitchifield-Wilcoxon method.

Row | SMILES | ED50 [1] [mg/kg] | inhibition in vivo at 50 mg/kg [2] [%] | LD50 at 336 h [3] [mg/kg]
1 | CCOC(=O)C(C(=O)Nc1nccs1)=C1SC=CS1 [19(b)] | 6.25 | 101 | 2500
2 | CCC(C)OC(=O)C(C(=O)Nc1nccs1)=C1SC=CS1 (centres unmarked) [19(c), sec-Butyl 2-(1,3-dithiol-2-ylidene)-2-[N-(2-thiazolyl)-carbamoyl]acetate] | < 6.25 | 100 | –
3 | CCC(C)OC(=O)C(C(=O)Nc1ccc(OC)cc1)=C1SC=CS1 (centres unmarked) [17(n), sec-Butyl 2-(1,3-dithiol-2-ylidene)-2-[N-(4-methoxyphenyl)carbamoyl]acetate] | 10 | 96.5 | > 5000
4 | CC(C)OC(=O)C(C(=O)Nc1cnccn1)=C1SC=CS1 [18(l), Isopropyl 2-(1,3-dithiol-2-ylidene)-2-[N-(pyrazin-2yl)carbamoyl]acetate] | < 6.25 | 99.8 | > 5000
5 | CCC(C)OC(=O)C(C(=O)Nc1ccccn1)=C1SC=CS1 (centres unmarked) [18(b), sec-Butyl 2-(1,3-dithiol-2-ylidene)-2-[N-(2-pyridyl)carbamoyl]acetate] | 7 | 100 | 5000
6 | Cc1cc(NC(=O)C(C(=O)OC(C)C)=C2SC=CS2)no1 [18(h), Isopropyl 2-(1,3-dithiol-2-ylidene)-2-[N-(5-methyl-3-isoxazolyl)carbamoyl]acetate] | 9 | 100 | > 5000
7 | Cc1cnc(NC(=O)C(C(=O)OC(C)C)=C2SC=CS2)s1 [19(e), Isopropyl 2-(1,3-dithiol-2-ylidene)-2-[N-(5-methyl-2-thiazolyl)carbamoyl]acetate] | 25 | 9.2 | –
8 | CCOC(=O)C(C(=O)Nc1ccc(OC)cc1)=C1SC=CS1 [17(m), Ethyl 2-(1,3-dithiol-2-ylidene)-2-[N-(4-methoxyphenyl)carbamoyl]acetate] | 50 | 61.5 | –
9 | CC(C)OC(=O)C(C(=O)Nc1cc[nH]n1)=C1SC=CS1 [20(a), Isopropyl 2-(1,3-dithiol-2-ylidene)-2-[N-(3-pyrazolyl)-carbamoyl]acetate] | 8 | 102 | 5000
10 | CC(C)OC(=O)C(C(=O)Nc1nncs1)=C1SC=CS1 [18(i), Isopropyl 2-(1,3-dithiol-2-ylidene)-2-[N-(1,3,4-thiadiazol-2-yl)carbamoyl]acetate] | < 6.25 | 100 | > 5000
11 | CC(C)OC(=O)C(C(=O)Nc1ccc(F)c(Cl)c1)=C1SC=CS1 [17(k)] | 6.25 | 93.8 | –
12 | CC(C)OC(=O)C(C(=O)Nc1ccncc1)=C1SC=CS1 [18(d), Isopropyl 2-(1,3-dithiol-2-ylidene)-2-[N-(4-pyridyl)carbamoyl]acetate] | < 6.25 | 99.7 | 1100
13 | CC(C)OC(=O)C(C(=O)Nc1cccnc1)=C1SC=CS1 [18(c), Isopropyl 2-(b 1,3-dithiol-2-ylidene)-2-[N-(3-pyridyl)carbamoyl]acetate] | 6.25 | 100 | –
14 | COC(=O)C(C(=O)Nc1ccccc1)=C1SC=CS1 [17(d), Methyl 2-(1,3-dithiol-2-ylidene)-2-(N-phenylcarbamoyl)acetate] | 20 | 98.2 | –
15 | CC(C)OC(=O)C(C(=O)Nc1ccc(O)cc1)=C1SC=CS1 [22(a), Isopropyl 2-(1,3-dithiol-2-ylidene)-2-[N-(4-hydroxyphenyl)carbamoyl]acetate] | 12.5 | 99.2 | > 5000
16 | Cc1nnc(NC(=O)C(C(=O)OC(C)C)=C2SC=CS2)s1 [18(j)] | 10 | 100 | > 5000
17 | CCOC(=O)C(C(=O)Nc1ccccc1)=C1SC=CS1 [17(c), Ethyl 2-(1,3-dithiol-2-ylidene)-2-(N-phenylcarbamoyl)acetate] | 8 | 100 | > 5000
18 | CCOC(=O)C(C(=O)NC1CCSC1=O)=C1SC=CS1 (centres unmarked) [14(b), Ethyl 2-(1,3-dithiol-2-ylidene)-2-[N-(tetrahydrothiophen-2-on-3-yl)carbamoyl]acetate] | 25 | 88.7 | > 4000
19 | CC(C)OC(=O)C(C(=O)Nc1[nH]cnc1C(N)=O)=C1SC=CS1 [18(o), Isopropy 2-(1,3-dithiol-2-ylidene)-2-[N-(4-carboxamido-5-imidazolyl)carbamoyl]acetate] | 25 | 98.7 | > 5000
20 | CC(C)OC(=O)C(C(=O)Nc1ccc(Cl)cn1)=C1SC=CS1 [18(g)] | 25 | 77.3 | > 5000
21 | Cc1cccc(NC(=O)C(C(=O)OC(C)C)=C2SC=CS2)n1 [18(f), Isopropyl 2-(1,3-dithiol-2-ylidene)-2-[N-(6-methyl-2-pyridyl)carbamoyl]acetate] | 12.5 | 100 | > 5000
22 | CCC(C)OC(=O)C(C(=O)Nc1ccccc1)=C1SC=CS1 (centres unmarked) [17(b), sec-Butyl 2-(1,3-dithiol-2-ylidene)-2-(N-phenylcarbamoyl)acetate] | 12.5 | 99.8 | > 5000
23 | CC(C)OC(=O)C(C(=O)Nc1nnn[nH]1)=C1SC=CS1 [20(b), Isopropyl 2-(1,3-dithiol-2-ylidene)-2-[N-(5-tetrazolyl)-carbamoyl]acetate] | 10 | 99.9 | 5000
24 | CC(C)OC(=O)C(C(=O)Nc1ccccc1)=C1SC=CS1 [17(a), Isopropyl 2-(1,3-dithiol-2-ylidene)-2-(N-phenylcarbamoyl)acetate] | 8 | 100 | 3000
25 | CC(C)OC(=O)C(C(=O)Nc1nccs1)=C1SC=CS1 [19(a), Isopropyl 2-(b 1,3-dithiol-2-ylidene)-2-[N-(2-thiazolyl)-carbamoyl) acetate] | 6.25 | 100 | > 5000
26 | CC(C)OC(=O)C(C(=O)Nc1ccccn1)=C1SC=CS1 [18(a), Isopropyl 2-(1,3-dithiol-2-ylidene)-2-[N-(2-pyridyl)carbamoyl]acetate] | < 6.25 | 99.8 | 4200
27 | CC(C)OC(=O)C(C(=O)NC1CCSC1=O)=C1SC=CS1 (centres unmarked) [14(a)] | 10 | 99.2 | > 5000
28 | Cc1ccnc(NC(=O)C(C(=O)OC(C)C)=C2SC=CS2)c1 [18(e), Isopropyl 2-(1,3-dithiol-2-ylidene)-2-[N-(4-methyl-2-pyridyl)carbamoyl]acetate] | 20 | 99.7 | > 5000
29 | Cc1csc(NC(=O)C(C(=O)OC(C)C)=C2SC=CS2)n1 [19(d), Isopropyl 2-(1,3-dithiol-2-ylidene)-2-[N-(4-methyl-2-thiazolyl)carbamoyl]acetate] | < 6.25 | 97.2 | 5000
30 | CCOC(=O)C(C(=O)Nc1ccc(O)cc1)=C1SC=CS1 [22(b), Ethyl 2-(1,3-dithiol-2-ylidene)-2-[N-(4-hydroxyphenyl)-carbamoyl]acetate] | < 12.5 | 90.9 | –
